In patent publication US4693992A, “Bacitracin-metal-polyether antibiotic complexes” (International Minerals & Chemical Corp., priority 1985, dated 1987):

Assays:
[1] = test system: Eimeria tenella; test: Anticoccidial activity in chickens inoculated with Eimeria tenella oocysts (Example 11); assay type: in vivo; settings: for Incidence of Bloody Droppings / Morbidity: 4th-6th day; for Morbidity: birds affected/birds in group; for Mortality: 4th-7th day, birds dead/birds in group; for F/G Day 0-3 / F/G Day 4-10: feed per gain
Description: (§1) This example describes experimental testing of complexes of this invention for anticoccidial activity. Anticoccidial activities of test compounds were determined by administering the compounds (in feed) to chickens inoculated with active oocysts of Eimeria tenella. The test compounds, which are listed in Table 1 below, included four bacitracin-metal-polyether antibiotic complexes prepared according to the procedures described above. In addition, sodium lysocellin, regular bacitracin, sodium monensin, sodium lasolocid, and unmedicated inoculated and noninoculated controls were included for comparative purposes.
(§2) The test animals were Hubbard White Mountain male chicken (broiler strain) that were 5 days old at the beginning of the test. Each experimental compound was administered in a chick starter diet (Table 2) at a level of 80 g/ton and 120 g/ton. At 7 days of age, chicks were individually weighed, banded, and started on their respective treatments. Each treatment was replicated three times with five birds per replicate for a total of 15 birds per group. The test period was 10 days.
Seventy-two hours after the initiation of medication, birds were reweighed and orally inoculated with approximately 100,000 Eimeria tenella oocysts suspended in a 1 cc dose of saline. The following criteria were then evaluated over the next seven days: […]
a. morbidity (4th-6th day) b. mortality (4th-7th day) c. incidence of bloody droppings (4th-6th day)

[2] = test system: Eimeria tenella; test: Anticoccidial activity in chickens inoculated with Eimeria tenella (Example 12); assay type: in vivo, chicken; settings: for Cecal Bleeding / Gain/Bird Days 0-3 / Gain/Bird Days 4-10: regrouped part of Table 2
Description: as §1, §2
Seventy-two hours after the initiation of medication, birds were reweighed and orally inoculated with approximately 100,000 Eimeria tenella oocysts suspended in a 1 cc dose of saline. The following criteria were then evaluated over the next seven days:
A satisfactory challenge was obtained with Eimeria tenella.

[3] = Weight gain and feed utilization efficiency in chicks, 11 days (Example 13); assay type: in vivo, chicken; parameters: key to Average Weight: average weight in grams; settings: .00275% in rye basal diet; for Average Gain / Gain/Feed Ratio: 11 days; for Average Weight / Gain/Feed: Table 4; for Average Gain Index / Gain/Feed Ratio Index: unmedicated = 100
Description: (§3) This example describes experimetnal testing of complexes of the present invention as feed additives for improving weight gain or feed utilization efficiency in birds. Test animals were male meat-type chickens (Hubbard strain). Fluorescent room lights were on a 16 hours light/8 hours dark schedule. The chicks were allotted to the pens on the basis of weight classes, and chicks in the even numbered pens were wing banded. Group weights were obtained at the start and individual weights at the termination of the experiment. Chicks weighing between 55 and 65 grams were selected for the test. The test compounds were blended with a basal feed ration (shown in Table 2) at the indicated concentration. Birds fed […] and feed supplemented with zinc bacitracin (Baciferm® 50, International Minerals and Chemical Corp.) were used as controls. The test was continued for 11 days, after which individual weights, pen weight and feed consumption were recorded and analyzed.

[4] = Weight gain and feed utilization in chicks, 12 days (Example 14); assay type: in vivo, chicken; settings: .0066% in feed; for Gain/Feed Data / Gains/gram Data: 12 days; for Gain/Feed Index Relative to #1 / Gains Index Relative to #1: #1 = unmedicated; for Gain/Feed Index Relative to #2 / Gains Index Relative to #2: #2 = zinc bacitracin
Description: as §3
All of the bacitracin-metal-polyether antibiotic complexes tested produced statistically significant increases in gains compared to the unmedicated basal ration.
The test involving test compounds 1 and 3-14 consisted of 5 replicates of 7 chicks and those involving test compound 2 consisted of 6 replicates of 7 chicks. The tests were continued for 12 days, after which individual weight gains and feed conusumption were recorded and analyzed.

[5] = test system: buffered rumen fluid; test: Rumen screen, in vitro ruminal volatile fatty acid ratio (Examples 15, 16); assay type: cell-based, steer; settings: 5 ppm, Neg. Control 1.39
Description: Rumen fluid was removed from a fistulated steer and strained through a cheesecloth. An equal amount of pH 7 buffer was added to strained rumen fluid. After layering occurred, the lower layer was saved and again diluted with equal amount of buffer. Ten ml. portions of buffered rumen fluid were added to fermentation vessels containing 500 mg. fresh finely ground cattle ration, 1 mg cellubiose and a test compound listed in Table 1 below at the indicated concentration. The fermentation vesels were outfitted with one-way gas valves, placed in an incubator and shaken for 24 hours at 38° C. Fermentation was stopped by addition of 1 ml mercuric chloride. The liquid was decanted and analyzed for volatile fatty acids by gas chromatography. Test results are summarized in Table 1, wherein Bac=bacitracin.
The procedures of Example 15 were repeated in all essential details with the test compounds and concentrations listed in Table 1 below, as are the results of the test.

Bacitracin-Manganese-Lysocellin Complex [Example 3]
anticoccidial activity (in words) ([1]; 80 and 120 g/ton, mild E. tenella challenge): excellent anticoccidial activity
Incidence of Bloody Droppings ([1]; 80 g/ton in feed): None
Morbidity ([1]; 80 g/ton in feed): 1/15
Mortality ([1]; 80 g/ton in feed): 0/15
Gain, Grams Day 0-3 ([1]; 80 g/ton in feed): 61.7 Grams
Gain, Grams Day 4-10 ([1]; 80 g/ton in feed): 226.6 Grams
F/G Day 0-3 ([1]; 80 g/ton in feed): 1.62
F/G Day 4-10 ([1]; 80 g/ton in feed): 1.59
Incidence of Bloody Droppings ([1]; 120 g/ton in feed): None
Morbidity ([1]; 120 g/ton in feed): 1/15
Mortality ([1]; 120 g/ton in feed): 0/15
Gain, Grams Day 0-3 ([1]; 120 g/ton in feed): 57.7 Grams
Gain, Grams Day 4-10 ([1]; 120 g/ton in feed): 231.8 Grams
F/G Day 0-3 ([1]; 120 g/ton in feed): 1.68
F/G Day 4-10 ([1]; 120 g/ton in feed): 1.61
Cecal Bleeding ([2]; 14 g/ton Lasalocid (Approx.)): Moderate
Gain/Bird Days 0-3 ([2]; 14 g/ton Lasalocid (Approx.)): 61.3
Gain/Bird Days 4-10 ([2]; 14 g/ton Lasalocid (Approx.)): 154.0
Cecal Bleeding ([2]; 36 g/ton Lasalocid (Approx.)): Slight-Moderate
Gain/Bird Days 0-3 ([2]; 36 g/ton Lasalocid (Approx.)): 61.3
Gain/Bird Days 4-10 ([2]; 36 g/ton Lasalocid (Approx.)): 202.4
Incidence of Bloody Droppings ([2]; 80 g/ton in feed): Moderate
Morbidity ([2]; 80 g/ton in feed): 10/15
Mortality ([2]; 80 g/ton in feed): 0/15
F/G Day 0-3 ([2]; 80 g/ton in feed): 1.81
Gain/Bird Grams Day 0-3 ([2]; 80 g/ton in feed): 61.3 Grams
F/G Day 4-10 ([2]; 80 g/ton in feed): 2.01
Gain/Bird Grams Day 4-10 ([2]; 80 g/ton in feed): 154.0 Grams
Morbidity ([2]; 120 g/ton in feed): 2/15
Mortality ([2]; 120 g/ton in feed): 0/15
F/G Day 0-3 ([2]; 120 g/ton in feed): 1.58
Gain/Bird Grams Day 0-3 ([2]; 120 g/ton in feed): 61.3 Grams
F/G Day 4-10 ([2]; 120 g/ton in feed): 1.74
Gain/Bird Grams Day 4-10 ([2]; 120 g/ton in feed): 202.4 Grams
anticoccidial activity (in words) ([2]; 120 grams per ton): good anticoccidial activity
Average Gain [3]: 215 g
Gain/Feed Ratio [3]: 64.6
Average Weight [3]: 274.8
Gain/Feed [3]: 64.6
Average Gain Index [3]: 104.5
Gain/Feed Ratio Index [3]: 101.3
Gain/Feed Data [4]: .588
Gains/gram Data [4]: 202.0 gram
Gain/Feed Index Relative to #1 [4]: 104.4
Gains Index Relative to #1 [4]: 109.1
Gain/Feed Index Relative to #2 [4]: 98.6
Gains Index Relative to #2 [4]: 96.4

Bacitracin-Sodium-Lysocellin Complex [Example 5]
Morbidity ([1]; 80 g/ton in feed): 4/15
Mortality ([1]; 80 g/ton in feed): 0/15
Gain, Grams Day 0-3 ([1]; 80 g/ton in feed): 56.1 Grams
Gain, Grams Day 4-10 ([1]; 80 g/ton in feed): 219.9 Grams
F/G Day 0-3 ([1]; 80 g/ton in feed): 1.70
F/G Day 4-10 ([1]; 80 g/ton in feed): 1.62
Incidence of Bloody Droppings ([1]; 120 g/ton in feed): Moderate
Morbidity ([1]; 120 g/ton in feed): 1/15
Mortality ([1]; 120 g/ton in feed): 1/15
Gain, Grams Day 0-3 ([1]; 120 g/ton in feed): 58.8 Grams
Gain, Grams Day 4-10 ([1]; 120 g/ton in feed): 228.3 Grams
F/G Day 0-3 ([1]; 120 g/ton in feed): 1.72
F/G Day 4-10 ([1]; 120 g/ton in feed): 1.62
Cecal Bleeding ([2]; 14 g/ton Lasalocid (Approx.)): Severe
Gain/Bird Days 0-3 ([2]; 14 g/ton Lasalocid (Approx.)): 59.9
Gain/Bird Days 4-10 ([2]; 14 g/ton Lasalocid (Approx.)): 147.7
anticoccidial activity (in words) ([2]; 36 (0.30 of 120) grams per ton): fair anticoccidial activity
Cecal Bleeding ([2]; 36 g/ton Lasalocid (Approx.)): Moderate
Gain/Bird Days 0-3 ([2]; 36 g/ton Lasalocid (Approx.)): 58.6
Gain/Bird Days 4-10 ([2]; 36 g/ton Lasalocid (Approx.)): 169.4
Incidence of Bloody Droppings ([2]; 80 g/ton in feed): Severe
Morbidity ([2]; 80 g/ton in feed): 11/15
Mortality ([2]; 80 g/ton in feed): 0/15
F/G Day 0-3 ([2]; 80 g/ton in feed): 1.68
Gain/Bird Grams Day 0-3 ([2]; 80 g/ton in feed): 59.9 Grams
F/G Day 4-10 ([2]; 80 g/ton in feed): 2.12
Gain/Bird Grams Day 4-10 ([2]; 80 g/ton in feed): 147.7 Grams
Cecal bleeding associated with E. tenella infections ([2]; 80 gram per ton): severe
Incidence of Bloody Droppings ([2]; 120 g/ton in feed): Moderate
Morbidity ([2]; 120 g/ton in feed): 8/15
Mortality ([2]; 120 g/ton in feed): 0/15
F/G Day 0-3 ([2]; 120 g/ton in feed): 1.65
Gain/Bird Grams Day 0-3 ([2]; 120 g/ton in feed): 58.6 Grams
F/G Day 4-10 ([2]; 120 g/ton in feed): 1.83
Gain/Bird Grams Day 4-10 ([2]; 120 g/ton in feed): 169.7 Grams
anticoccidial activity (in words) ([2]; 120 grams per ton): good anticoccidial activity
Average Gain [3]: 214 g
Gain/Feed Ratio [3]: 63.1
Average Weight [3]: 274.8
Gain/Feed [3]: 63.1
Average Gain Index [3]: 104.2
Gain/Feed Ratio Index [3]: 99.0
Gain/Feed Data [4]: .595
Gains/gram Data [4]: 212.4 gram
Gain/Feed Index Relative to #1 [4]: 105.7
Gains Index Relative to #1 [4]: 114.8
Gain/Feed Index Relative to #2 [4]: 99.8
Gains Index Relative to #2 [4]: 101.3

sodium lysocellin [reference compound]
A/P Ratio ([5]; Example 15, 24 hours at 38° C.): 1.07
A/P Ratio ([5]; Example 16): 1.07
